{"source": "patent US20040048791A1", "about": "“Method for treating neoplastic cells using cycloprodigiosin or salt thereof” (priority 2002, published 2004)", "key": {"[1]": {"tested_on": "caspase-3", "experiment": "Caspase-3 assay with DEVD-AFC on cell extracts", "assay_type": "cell-based", "details": "HeLa cells, cPrG-HCl and TNFα, FIG. 1B; hydrochloride", "protocol": "Assay for apoptotic processes: Cell viability was determined by dye exclusion assay using 0.1% trypan blue. DNA fragmentation was analyzed as described previously (Kawauchi, K. et al. (1997) Biochem. Biophys. Res. Commun. 237, 543-547). In the caspase-3 assay, cells were disrupted by freeze-thaw in an extraction buffer (50 mM Tris-HCl, pH7.4, 1 mM EGTA, 5 mM EDTA, 5 mM MgCl2, 1 mM APMSF, 10 μg/ml pepstatin, 10 μg/ml leupeptin, and 1 mM DTT). Then the suspension was centrifuged at 15,000 rpm for 20 min, and the supernatants obtained were incubated at 37° C. for 60 min in a reaction buffer (50 mM Tris-HCl, pH7.4, 1 mM EDTA, 10 mM EGTA) with 20 μM of the fluorogenic substrate DEVD-AFC (Peptide Institute, Inc., Japan). Cleavage of the substrates was quantified by measuring the fluorescence of 7-amino-4-trifluomethyl coumarin released using a spectrofluorometer (Shimadzu RF5000) with excitation at 380 mn and emission at 460 nm.\nHeLa cells were treated with TNFα and cPrG.HCl and the effect of cPrG.HCl on apoptosis was examined by measuring DNA fragmentation and survivability."}, "[2]": {"tested_on": "NF-κB", "experiment": "NF-κB luciferase gene reporter assay (pIG3Luc) in HeLa cells", "assay_type": "cell-based", "excerpt": "The plasmids, pRKF-IKKα and pRKHA-IKKβ have been described previously (Oka, S., Kamata, H., Kamata, K., Yagisawa, H. and Hirata, H. (2000) FEBS Lett., 472, 196-202). pRKF-IKKαEE and pRK-HA-IKKβEE encode constitutively active mutants of IKKα, in which 176 and 180 serine residues in an activation loop are replaced by glutamic acid residues, and IKKβ, in, which 177 and 181 serine residues are replaced by glutamic acid residues, respectively. A reporter plasmid pIG3Luc for NF-κB encodes triple NF-κB binding site sequences (AGCTTCAGAGGGGACTRANSCRIPTIONCCGAGAGG) (SEQ ID NO: 2) followed by the luciferase gene. A control plasmid, pBKRLuc, was obtained from Toyobo (Toyo B-Net Co., Japan). pcDNAF-MEKK1, pRKF-p65, pEFBOSHA-Rac1-DA, and pEFBOSHA-Cdc42-DA, are the expression plasmids for MEKK1, the NF-κB subunit p65, constitutively active Rac1 and Cdc42, respectively.\nLuciferase gene reporter assay and Kinase assays of IKK: HeLa cells were transfected with the reporter plasmids described above using Lipofectin (GIBCO BRL). After 24-48 hr, the luciferase activity was determined using the Luciferase Assay System (Promega). The kinase activity of IKKα and IKKβ were analyzed by immune complex kinase assay as described previously (Oka, S., Kamata, H., Kamata, K., Yagisawa, H. and Hirata, H. (2000) FEBS Lett. 472, 196-202). The substrates was using GST-IκBα(1-55) or GST-p65(399-551).\nThe gene expression induction by NF-κB activation plays the most important role among “life” signals by TNFα. Therefore, the NF-κB reporter gene was introduced into the cells to analyze the effect of cPrG-HCl by luciferase assay.\nNF-κB is translocated into the nucleus also by activation with low-molecular-weight G proteins Rac1 and Cdc42 or MEKK1 and induces gene expression. An activated Rac1, Cdc42 or MEKK1 expression plasmid was introduced together with the NF-κB reporter gene into cells and the effect of cPrG-HCl on NF-κB activation was measured by luciferase assay (FIG. 4A and FIG. 4B)."}, "[3]": {"biological_target": "PKA (Homo sapiens, UniProt P17612)", "experiment": "PKA activity in vitro", "assay_type": "biochemical", "details": "FIG. 13, hydrochloride", "excerpt": "Accordingly, in order to identify the p65 kinase which cPrG-HCl suppressed, the effect of cPrG-HCl on PKA (FIG. 13), casein kinase II (CKII) (FIG. 12), and IκB kinase (IKK) (FIG. 14) was studied in vitro."}, "[4]": {"tested_on": "JNK", "details": "earlier abstract of the inventors (Kamata et al., 2000); cited from earlier work"}}, "note": "Entries after “also recorded” stand apart in the source; their conditions may differ. Counter-ions that a name gives are not always drawn."}
{"smiles": "COC1=CC(c2ccc[nH]2)=N/C1=C\\c1[nH]c(C)c2c1C(C)CCC2", "note": "(stereo not drawn) [cPrG-HCl, Cycloprodigiosin hydrochloride]", "values": [{"measurement": "caspase-3 activation", "setting": "[1]", "value": "markedly induced; also recorded: marked synergistic caspase-3 activation"}, {"measurement": "NF-κB-dependent gene expression induced by IKKα", "setting": "[2]", "value": "Suppresses"}, {"measurement": "NF-κB-dependent gene expression induced by IKKβ", "setting": "[2]", "value": "Suppresses"}, {"measurement": "NF-κB-dependent gene expression induced by p65", "setting": "[2]", "value": "Suppresses"}, {"measurement": "PMA-induced activation of NF-κB", "setting": "[2]; FIG. 3A", "value": "Suppresses"}, {"measurement": "TNFα-induced NF-κB activation (gene expression induction, luciferase)", "setting": "[2]; HeLa cells, FIG. 2A, 2C, hydrochloride", "value": "inhibited; also recorded: concentration-dependently suppressed"}, {"measurement": "NF-κB activation induced by MEKK1", "setting": "[2]; MEKK1 expression plasmid with reporter gene, FIG. 4", "value": "suppressed"}, {"measurement": "NF-κB activation induced by Cdc42", "setting": "[2]; activated Cdc42 expression plasmid with reporter gene, FIG. 4", "value": "suppressed"}, {"measurement": "NF-κB activation induced by Rac1", "setting": "[2]; activated Rac1 expression plasmid with reporter gene, FIG. 4", "value": "suppressed"}, {"measurement": "TNFα-induced NF-κB activation", "setting": "[2]; in the presence of imidazole, FIG. 2C", "value": "suppressed"}, {"measurement": "effect on PKA activity", "setting": "[3]", "value": "does not directly suppress; also recorded: no suppressive effect"}, {"measurement": "JNK activation", "setting": "[4]", "value": "no suppressive effect"}]}
